{"source": "patent US9499486B2", "about": "“Kinase inhibitor” (RESPIVERT LIMITED, priority 2014, dated 2016)", "key": {"[1]": {"target": "T1, Syk (Homo sapiens (Human), UniProt P43405)", "assay": "Syk enzyme inhibition, Z-LYTE FRET", "assay_type": "biochemical", "experimental": "The enzyme inhibitory activities of the compound disclosed herein are determined by FRET using synthetic peptides labelled with both donor and acceptor fluorophores (Z-LYTE, Invitrogen Ltd., Paisley, UK).\nThe inhibitory activities of the compound of the invention against c-Src and Syk enzymes (Invitrogen), are evaluated in a similar fashion to that described hereinabove. The relevant enzyme (3000 ng/mL or 2000 ng/mL respectively, 2.5 μL) is incubated with the test compound (either 1 μg/mL, 0.1 μg/mL, 0.01 μg/mL, or 0.001 μg/mL, 2.5 μL each) for 2 hr at RT. The FRET peptides (8 μM, 2.5 μL), and appropriate ATP solutions (2.5 μL, 800 μM for c-Src, and 60 μM ATP for Syk) are then added to the enzymes/compound mixtures and the mixture incubated for 1 hr. Development reagent (protease, 5 μL) is added for 1 hr prior to detection in a fluorescence microplate reader (Varioskan® Flash, ThermoFisher Scientific).\nIn all cases, the site-specific protease cleaves non-phosphorylated peptide only and eliminates the FRET signal. Phosphorylation levels of each reaction are calculated using the ratio of coumarin emission (donor) over fluorescein emission (acceptor), for which high ratios indicate high phosphorylation and low ratios indicate low phosphorylation levels."}, "[2]": {"target": "hERG (Homo sapiens (Human), UniProt Q12809)", "sequence (Q12809 whole entry)": "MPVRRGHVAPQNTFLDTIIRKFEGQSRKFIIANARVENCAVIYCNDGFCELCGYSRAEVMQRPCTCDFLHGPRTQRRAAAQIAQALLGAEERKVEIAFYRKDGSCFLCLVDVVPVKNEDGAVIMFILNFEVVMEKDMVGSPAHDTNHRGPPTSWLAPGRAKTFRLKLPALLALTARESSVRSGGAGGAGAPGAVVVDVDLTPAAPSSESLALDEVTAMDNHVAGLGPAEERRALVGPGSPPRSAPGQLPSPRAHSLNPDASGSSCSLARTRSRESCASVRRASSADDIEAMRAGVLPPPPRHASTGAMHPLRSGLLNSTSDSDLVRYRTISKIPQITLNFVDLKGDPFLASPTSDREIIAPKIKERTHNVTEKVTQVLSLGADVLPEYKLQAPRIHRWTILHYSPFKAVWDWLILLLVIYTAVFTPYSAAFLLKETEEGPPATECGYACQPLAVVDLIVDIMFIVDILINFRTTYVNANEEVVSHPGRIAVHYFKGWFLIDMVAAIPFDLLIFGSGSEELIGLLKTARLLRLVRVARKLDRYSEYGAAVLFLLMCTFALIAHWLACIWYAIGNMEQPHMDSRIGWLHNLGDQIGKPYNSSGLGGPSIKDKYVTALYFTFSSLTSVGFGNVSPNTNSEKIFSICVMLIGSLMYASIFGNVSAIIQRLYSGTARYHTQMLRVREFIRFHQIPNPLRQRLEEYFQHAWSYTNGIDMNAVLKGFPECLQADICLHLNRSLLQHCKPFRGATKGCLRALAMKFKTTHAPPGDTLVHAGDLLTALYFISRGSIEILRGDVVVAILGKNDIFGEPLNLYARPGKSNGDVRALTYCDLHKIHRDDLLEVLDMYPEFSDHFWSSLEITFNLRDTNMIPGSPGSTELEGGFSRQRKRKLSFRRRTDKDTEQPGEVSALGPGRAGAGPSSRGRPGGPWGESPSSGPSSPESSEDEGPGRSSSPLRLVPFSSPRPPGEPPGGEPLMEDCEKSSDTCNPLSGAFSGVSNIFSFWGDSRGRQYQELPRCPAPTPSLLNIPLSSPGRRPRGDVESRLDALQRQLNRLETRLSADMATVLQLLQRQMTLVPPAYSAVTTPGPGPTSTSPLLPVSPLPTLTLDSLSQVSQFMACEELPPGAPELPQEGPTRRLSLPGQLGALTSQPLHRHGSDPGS", "assay": "hERG inhibition, IonWorks patch clamp electrophysiology", "assay_type": "cell-based", "settings": "human; Top Concentration 3 μM", "experimental": "The compound of the invention was tested for inhibition of the human ether a go-go (hERG) channel using IonWorks™ patch clamp electrophysiology at Essen Bioscience (Welwyn Garden City, England)."}, "[3]": {"test_system": "eyes of albino New Zealand White rabbits"}, "[4]": {"target": "T1, Syk", "assay": "KINOMEscan dissociation constant, Syk", "assay_type": "binding", "excerpt": "These assays may be conducted by DiscoverX (formerly Ambit; San Diego, Calif.)."}}, "note": "Like-named read-outs stand apart in the source and are kept apart here.", "data": [{"smiles": "COc1cc(Nc2cc(Oc3ccc(NC(=O)Nc4cc(C(C)(C)C)cc(NS(C)(=O)=O)c4OC)c4ccccc34)ccn2)ccc1C(=O)O", "note": "[Example 1, 4-((4-((4-(3-(5-(tert-Butyl)-2-methoxy-3-(methylsulfonamido)phenyl)ureido)naphthalen-1-yl)oxy)pyridin-2-yl)amino)-2-methoxybenzoic acid]", "values": [{"measurement": "IC50", "setting": "[1]", "result": 5, "unit": "nM"}, {"measurement": "inhibition at 3 µM", "setting": "[2]", "result": -4, "unit": "%"}, {"measurement": "ocular reactions compared with vehicle controls", "setting": "[3]; Phase 1, one treatment day, 0.1 and 1.0 mg/mL", "result": "no differences in the frequency, severity and incidence"}, {"measurement": "local tolerability of the formulations", "setting": "[3]; Phase 1, single dosing day, 0.1 and 1.0 mg/mL", "result": "acceptable"}, {"measurement": "local tolerability of the formulations", "setting": "[3]; Phase 2, three consecutive treatment days, 0.1 and 1.0 mg/mL", "result": "acceptable without any aggravation"}, {"measurement": "effects on body weight and food consumption", "setting": "[3]; rabbits, ocular 0.1 and 1.0 mg/mL, four daily instillations", "result": "no effects on body weight, nor on food consumption"}, {"measurement": "Kd", "setting": "[4]", "result": 7.1, "unit": "nM"}]}]}
